According to patent US12697315B2, “Treatment for interstitial lung disease” (United Therapeutics Corporation, priority 2020, dated 2026):

What was measured:
Type in all cases: in vivo, human
[1] = tested on: NT-proBNP; experiment: Plasma NT-proBNP level, INCREASE; details: for NT-proBNP treatment ratio (ratio of ratios between treatment groups): vs placebo, week 16
Procedure: (§1) We enrolled patients with interstitial lung disease and pulmonary hypertension (documented by right heart catheterization) in a multicenter, randomized, double-blind, placebo-controlled, 16-week trial. Patients were assigned in a 1:1 ratio to receive inhaled treprostinil, administered by means of an ultrasonic, pulsed-delivery nebulizer in up to 12 breaths (total, 72 μg) four times daily, or placebo. The primary efficacy end point was the difference between the two treatment groups in the change in peak 6-minute walk distance from baseline to week 16. Secondary end points included the change in N-terminal pro-B-type natriuretic peptide (NT-proBNP) level at week 16 and the time to clinical worsening.
(§2) The 6-minute walk test was performed and laboratory data were obtained at baseline and at weeks 4, 8, 12, and 16, or at the time of early discontinuation of treprostinil or placebo. Each 6-minute walk test was performed 10 to 60 minutes after the most recent dose of active drug or placebo, which is the time of peak plasma treprostinil exposure. A trough test was performed at week 15 at least 4 hours after the participant received a dose of treprostinil or placebo and at least 24 hours before the week 16 test. Pulse oximetry was performed immediately before, during, and after each 6-minute walk test. Measurement of N-terminal pro-B-type natriuretic peptide (NT-proBNP) levels and pulmonary function tests were performed at baseline and at weeks 8 and 16 (or at early discontinuation) after the patients recovered from the 6-minute walk test. The St. George's Respiratory Questionnaire (SGRQ), a quality-of-life measure, was completed at baseline and week 16 or at the time of early discontinuation.
(§3) The primary end point of the trial was the difference between the two groups in the change in peak 6-minute walk distance from baseline to week 16. Secondary efficacy end points were analyzed in the following hierarchical testing order: the change in NT-proBNP level from baseline to week 16, the time to clinical worsening, the change in 6-minute walk distance at peak plasma treprostinil level at week 12, and the change in 6-minute walk distance at trough treprostinil level at week 15. The time to clinical worsening was evaluated from the time of randomization until the patient's withdrawal from the trial and was defined as the time until the occurrence of any one of the following events: hospitalization for a cardiopulmonary indication, a decrease in 6-minute walk distance greater than 15% from baseline that was directly related to the disease under study at two consecutive visits and at least 24 hours apart, death from any cause, or lung transplantation.

[2] = tested on: patients with interstitial lung disease and pulmonary hypertension; experiment: 6-minute walk test, INCREASE
Procedure: as §1, §2, §3
For the primary efficacy analysis, the change in 6-minute walk distance was analyzed by mixed-model repeated-measures methods, under the assumption that missing data were missing at random. The model included the change from baseline to peak 6-minute walk distance as the dependent variable, with treatment, week, and treatment-by-week interaction as fixed effects, and the baseline 6-minute walk distance as a covariate. A sensitivity analysis for the primary end point was performed by means of a multiple imputation approach with a multivariate normal imputation model according to the Markov chain Monte Carlo method. The imputation model included treatment group, all scheduled visits, the patient's sex, and the patient's age at randomization. If the result for the primary efficacy end point was significant, secondary efficacy end points were to be evaluated according to a hierarchical testing procedure. Confidence intervals have not been adjusted for multiplicity and can-not be used to infer definitive treatment effects for secondary efficacy end points.

[3] = tested on: patients with interstitial lung disease and pulmonary hypertension; experiment: Distance saturation product, INCREASE
Procedure: Change in distance saturation product is the product of distance walked and lowest SpO2 recorded during the 6-minute walk test.^7 Change from baseline to Week 16 in distance saturation product was analyzed by parametric ANCOVA with no imputation for missing distance saturation product values.

[4] = tested on: patients with interstitial lung disease and pulmonary hypertension; experiment: Supplemental oxygen use, INCREASE
[5] = tested on: patients with interstitial lung disease and pulmonary hypertension; experiment: Occurrence of / time to clinical worsening, INCREASE
Procedure: as §3

[6] = vs placebo, listed as Inhaled Treprostinil
[7] = vs placebo, listed as inhaled treprostinil

CCCCC[C@H](O)CC[C@@H]1[C@H]2Cc3cccc(OCC(=O)O)c3C[C@H]2C[C@H]1O [Inhaled treprostinil, treprostinil]
Change in plasma concentration of NT-proBNP from baseline to wk 16, Mean (±SD) change ([1]; 156 patients): -396.35 ± 1904.90 pg/mL
Change in plasma concentration of NT-proBNP from baseline to wk 16, Median ([1]; 156 patients): -22.65 pg/mL
reduction in NT-proBNP compared to placebo ([1]; Week 16): 42%
reduction in NT-proBNP levels from baseline ([1]; Week 16): 15%
NT-proBNP treatment ratio (ratio of ratios between treatment groups) ([1]; listed as Inhaled Treprostinil): ±0.58 ± 0.06
NT-proBNP treatment ratio (ratio of ratios between treatment groups) ([1]; listed as inhaled treprostinil): 0.58
NT-proBNP, Ratio to baseline ([1]; wk 16, LS mean of log-transformed data ± SE): 0.85 ± 0.06
Change in peak 6-minute walk distance from baseline to wk 16 ([2]; LS mean ± SE, MMRM): 21.08 ± 5.12 m
Least-squares mean change in peak 6-minute walk distance from baseline to wk 12 ([2]; mean ± SE): 18.77 ± 4.99 m
Least-squares mean change in trough 6-minute walk distance from baseline to wk 15 ([2]; mean ± SE): 9.3 ± 5.5 m
Treatment effect, least-squares mean difference in change in peak 6-minute walk distance, baseline to wk 16 ([2]; vs placebo, MMRM, listed as Inhaled Treprostinil): 31.12 ± 7.25 m
Treatment effect, least-squares mean difference in change in peak 6-minute walk distance, baseline to wk 16 ([2]; vs placebo, MMRM, listed as inhaled treprostinil): 31.12 m
Treatment effect, least-squares mean difference in change in peak 6-minute walk distance, baseline to wk 16 ([2]; vs placebo, MMRM, listed as treprostinil): 31.12 m
Treatment effect, least-squares mean difference in peak 6-minute walk distance, baseline to wk 12 [2, 6]: 31.29 ± 7.07 m
Treatment effect, least-squares mean difference in trough 6-minute walk distance, baseline to wk 15 [2, 6]: 21.99 ± 7.7 m
Treatment effect, least-squares mean difference in peak 6-minute walk distance, baseline to wk 12 [2, 7]: 31.29 m
Treatment effect, least-squares mean difference in trough 6-minute walk distance, baseline to wk 15 [2, 7]: 21.99 m
between-group difference in change from baseline in peak 6-minute walk distance at week 16 ([2]; vs placebo, multiple imputation, Markov chain Monte Carlo): 30.97 m
Distance saturation product, Week 16 Change from Baseline, LS Mean (SE) ([3]; ANCOVA): 7.2 (4.5) m %
Distance saturation product, Week 16 Change from Baseline, Mean (SD) ([3]; n 118): 7.607 (45.680) m %
Distance saturation product, Week 16 Change from Baseline, Median ([3]; n 118): 8.385 m %
Distance saturation product, LS Mean Difference (SE) ([3]; week 16, vs placebo): 11.51 (6.5), 95% CI (−1.33, 24.35) m %
between-group difference in the distance-saturation product ([3]; week 16, vs placebo): no significant between-group difference
Supplemental oxygen use During Walk (L/min), Change from Baseline, Median ([4]; Baseline During Walk): 0.0 L/min
Supplemental oxygen use During Walk (L/min), Value, Median ([4]; Baseline During Walk): 4.0 L/min
Supplemental oxygen use During Walk (L/min), Change from Baseline, Mean (SD) ([4]; Baseline During Walk, n 129): 0.1 (0.8) L/min
Supplemental oxygen use During Walk (L/min), Value, Mean (SD) ([4]; Baseline During Walk, n 129): 4.9 (4.0) L/min
Supplemental oxygen use Pre-walk (L/min), Change from Baseline, Median ([4]; Week 16): 0.0 L/min
Supplemental oxygen use Pre-walk (L/min), Value, Median ([4]; Week 16): 3.0 L/min
Supplemental oxygen use Pre-walk (L/min), Change from Baseline, Mean (SD) ([4]; Week 16, n 131): 0.4 (1.4) L/min
Supplemental oxygen use Pre-walk (L/min), Value, Mean (SD) ([4]; Week 16, n 131): 3.0 (2.5) L/min
treatment-related changes in supplemental oxygen use ([4]; over the trial period): no significant treatment-related changes
patients with clinical worsening ([5]; 16 weeks): 22.7%
patients with first occurrence of clinical worsening that involved hospitalization for a cardiopulmonary indication ([5]; 16 weeks): 11.0%
Clinical worsening: Death from any cause ([5]; 16 weeks, N = 163): 4 (2.5) no. (%)
Clinical worsening: Decrease in 6 minute walk distance of >15% from baseline ([5]; 16 weeks, N = 163): 13 (8.0) no. (%)
Clinical worsening: Hospitalization for cardiopulmonary indication ([5]; 16 weeks, N = 163): 18 (11.0) no. (%)
Clinical worsening: Lung transplantation ([5]; 16 weeks, N = 163): 2 (1.2) no. (%)
Occurrence of clinical worsening: Any event ([5]; 16 weeks, N = 163): 37 (22.7) no. (%)
Occurrence of clinical worsening, hazard ratio ([5]; vs placebo, Cox proportional-hazards model, listed as inhaled treprostinil): 0.61
